Assays:
[1] = Visual observation of test solutions for deposition of crystals or white turbidity; format: physicochemical; design: key to turbidity (visual observation): +: turbidity found; −: no turbidity
Experimental: Among the reagents for the determination of calcium with the reagent formulations as described below, test enzyme solutions were prepared by the addition of glucosyl-α-cyclodextrin (G1αCD), maltosyl-α-cyclodextrin (G2αCD), glucosyl-p-cyclodextrin (G1βCD), or maltosyl-β-cyclodextrin(G2βCD) as a cyclodextrin derivative to have a concentration of 0, 1.5, 3, 6, or 12 mM. To the test enzyme solutions containing 3 mM glucosyl-β-cyclodextrin was further added independently N-acetylcysteine or reduced glutathione to have a concentration of 2.5, 5, 10, or 20 mM.
Both kinds of test solutions prepared by the above procedures were stored at 4° C. for 3 months. Visual observation of the test solutions was carried out just after the preparation and after the storage to examine whether there was found the deposition of crystals or the presence of white turbidity. The results are shown in table 1 for the visual observation just after the preparation and in Table 2 for the visual observation after the storage.
The test solutions were prepared in the same manner as described in Example 1, except that α-cyclodextrin (αCD) (1.5, 3, 6, or 12 mM), β-cyclodextrin (βCD) (1.5, 3, 6, or 12 mM), or γ-cyclodextrin (γCD) (1.5, 3, 6, or 12 mM) was independently added instead of the cyclodextrin derivatives and the SH group containing compounds in the above reagent formulations to have the respective concentrations as shown in Table 1. Both kinds of test solutions were stored at 4° C. for 3 months. Visual observation of the test solutions was carried out just after the preparation and after the storage to examine whether there was found the deposition of crystals or the presence of white turbidity. The results are shown in Table 1 for the visual observation just after the preparation and in Table 2 for the visual observation after the storage.

[2] = target: T1, Inactive α-amylase (from swine pancreas) (Sus scrofa, UniProt P00690); assay: Residual activity of α-amylase in test enzyme solutions after storage; format: biochemical; settings: after storage at 35° C. for 7 days
T1 construct: α-amylase derived from the swine pancreas; from tissue; host or cells: swine pancreas
T1 sequence (P00690 16-511): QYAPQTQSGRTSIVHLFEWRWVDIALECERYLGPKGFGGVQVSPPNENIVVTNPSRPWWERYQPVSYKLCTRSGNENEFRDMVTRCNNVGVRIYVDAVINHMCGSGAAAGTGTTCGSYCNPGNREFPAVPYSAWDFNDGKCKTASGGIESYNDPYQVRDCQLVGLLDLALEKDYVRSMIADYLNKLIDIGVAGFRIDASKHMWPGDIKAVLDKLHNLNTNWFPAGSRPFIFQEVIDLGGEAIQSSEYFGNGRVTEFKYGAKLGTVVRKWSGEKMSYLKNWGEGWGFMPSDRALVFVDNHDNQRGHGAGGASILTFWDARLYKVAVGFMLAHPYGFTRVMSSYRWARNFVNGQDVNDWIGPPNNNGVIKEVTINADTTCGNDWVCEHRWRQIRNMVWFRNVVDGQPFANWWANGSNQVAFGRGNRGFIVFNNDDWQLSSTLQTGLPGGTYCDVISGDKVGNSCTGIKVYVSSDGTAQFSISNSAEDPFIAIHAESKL
Experimental: [table] In the test enzyme solutions of the reagents for the determination of calcium with the reagent formulations as described above in Example 1, glucosyl-α-cyclodextrin, maltosyl-α-cyclodextrin, glucosyl-β-cyclodextrin, or maltosyl-β-cyclodextrin was independently added as a cyclodextrin derivative at 12 mM. […] Instead of the cyclodextrin derivatives and the SH group containing compounds in the reagent formulations as described above in Example 1, glucose (100 mM), maltose (50 mM), maltotriose (30 mM), α-cyclodextrin (1.5 mM), β-cyclodextrin (1.5 mM), γ-cyclodextrin (1.5 mM), N-acetylcysteine (20 mM), or reduced glutathione (20 mM) was independently added to have the respective concentrations as shown in Table 3.

[3] = target: T1, Inactive α-amylase (from swine pancreas); assay: Calcium linearity of test solutions just after preparation and after storage; format: biochemical; settings: after the storage at 35° C. for 7 days
Experimental: To 5.8 μl of a sample was added 180 μl of a test enzyme solution, and the mixture was pre-warmed for 5 minutes, to which 90 μl of a test substrate solution was further added to make the reaction start. The change of absorbance per minute for 3 minutes was measured starting at the time when 2 minutes passed after the addition of the test substrate solution, and the amount of calcium in the sample was determined according to the two-point calibration curves for purified water and 10 mg/dl calcium standard solution.
The measuring apparatus used was HITACHI Automatic Analyzer model 7170. The measurement wavelength was 405 nm for the principal wavelength and 546 nm for the second wavelength. The measurement was carried out at 37° C.
[…] […] According to the method for the determination of the amount of calcium as described in Example 3, Sec. B, the calcium linearity was determined for test solutions just after the preparation and after the storage at 35° C. for 7 days with serial 10-fold dilutions of a 50 mg/dl aqueous calcium solution as samples.
Instead of the cyclodextrin derivatives and the SN-group containing compounds in the reagent formulations as described above in Example 1, β-cyclodextrin was added at 1.5 mM. The test solutions thus prepared were stored at 35° C. for 7 days and the calcium linearity was determined in the same manner as described in Example 3.

[4] = target: T1, Inactive α-amylase (from swine pancreas); assay: Relative sensitivity in determination of calcium with 10 mg/dl calcium standard solution; format: biochemical; settings: just after the preparation, 10 mg/dl calcium standard
Experimental: [table] In the test enzyme solutions of the reagents for the determination of calcium with the reagent formulations as described above in Example 1, glucosyl-α-cyclodextrin, maltosyl-α-cyclodextrin, glucosyl-β-cyclodextrin, or maltosyl-β-cyclodextrin was independently added as a cyclodextrin derivative at 0, 1.5, 3, 6, or 12 mM. To the test enzyme solutions containing 3 mM glucosyl-β-cyclodextrin was further added independently N-acetylcysteine or reduced glutathione at 2.5, 5, 10, or 20 mM, and the determination of calcium ions with a calcium standard solution was carried out as described below. According to the method as described below, the determination of the amount of calcium was carried out for test solutions just after the preparation with 10 mg/dl calcium standard solution as a sample, and the relative sensitivity (%) was determined under the respective reagent conditions when the sensitivity in the case of no addition of cyclodextrin derivatives was taken as 100%. B. Method for the Determination of the Amount of Calcium To 5.8 μl of a sample was added 180 μl of a test enzyme solution, and the mixture was pre-warmed for 5 minutes, to which 90 μl of a test substrate solution was further added to make the reaction start. […] The measuring apparatus used was HITACHI Automatic Analyzer model 7170. The measurement wavelength was 405 nm for the principal wavelength and 546 nm for the second wavelength. The measurement was carried out at 37° C. […] The test solutions thus prepared were used for the determination of the calcium standard solution in the same manner as described in Example 3.

[5] = after storage at 4° C. for 3 months, agent added 1.5 mM
[6] = after storage at 4° C. for 3 months, agent added 3 mM
[7] = after storage at 4° C. for 3 months, agent added 6 mM
[8] = after storage at 4° C. for 3 months, agent added 12 mM
[9] = just after the preparation, agent added 1.5 mM
[10] = just after the preparation, agent added 3 mM
[11] = just after the preparation, agent added 6 mM
[12] = just after the preparation, agent added 12 mM

| SMILES | turbidity (visual observation) [1, 5] | turbidity (visual observation) [1, 6] | turbidity (visual observation) [1, 7] | turbidity (visual observation) [1, 8] | turbidity of test enzyme solution (in words) ([1]; after the storage at 4° C. for 3 months, at 3 mM) | turbidity (visual observation) [1, 9] | turbidity (visual observation) [1, 10] | turbidity (visual observation) [1, 11] | turbidity (visual observation) [1, 12] | turbidity of test enzyme solution (in words) ([1]; just after the preparation, at 6 mM) | Residual activity (%) ([2]; agent 1.5 mM) | calcium linearity / quantitative reliability (in words) ([3]; agent 1.5 mM) | Residual activity (%) ([2]; agent 12 mM) | Relative sensitivity (%) when sensitivity in case of no addition is taken as 100% ([4]; agent 1.5 mM) [%] | Relative sensitivity (%) when sensitivity in case of no addition is taken as 100% ([4]; agent 3 mM) [%] | Relative sensitivity (%) when sensitivity in case of no addition is taken as 100% ([4]; agent 6 mM) [%] | Relative sensitivity (%) when sensitivity in case of no addition is taken as 100% ([4]; agent 12 mM) [%] | calcium linearity / quantitative reliability (in words) ([3]; agent 12 mM) |
| --- | --- | --- | --- | --- | --- | --- | --- | --- | --- | --- | --- | --- | --- | --- | --- | --- | --- | --- |
| OC[C@H]1O[C@@H]2O[C@H]3[C@H](O)[C@@H](O)[C@@H](O[C@H]4[C@H](O)[C@@H](O)[C@@H](O[C@H]5[C@H](O)[C@@H](O)[C@@H](O[C@H]6[C@H](O)[C@@H](O)[C@@H](O[C@H]7[C@H](O)[C@@H](O)[C@@H](O[C@H]8[C@H](O)[C@@H](O)[C@@H](O[C@H]1[C@H](O)[C@H]2O)O[C@@H]8CO)O[C@@H]7CO)O[C@@H]6CO)O[C@@H]5CO)O[C@@H]4CO)O[C@@H]3CO [βCD, β-cyclodextrin, reference compound] | − | − | + | + | became turbid | − | − | + | + | had already become turbid | 77.4 | became deviated upward, and the quantitative reliability was decreased at high concentrations |  |  |  |  |  |  |
| OCC1OC(OCC2OC3OC4C(CO)OC(OC5C(CO)OC(OC6C(CO)OC(OC7C(CO)OC(OC8C(CO)OC(OC9C(CO)OC(OC2C(O)C3O)C(O)C9O)C(O)C8O)C(O)C7O)C(O)C6O)C(O)C5O)C(O)C4O)C(O)C(O)C1O (stereo not drawn) [G1βCD, glucosyl-β-cyclodextrin] | − | − | − | − |  | − | − | − | − |  |  |  | 91.7 | 120.7 | 128.6 | 133.2 | 122.5 | the quantitative reliability was kept at high concentrations |
